Laboratory results reported in patent publication US20120309838A1, “USE OF AGOMELATINE IN OBTAINING MEDICAMENTS INTENDED FOR THE TREATMENT OF OBSESSIVE-COMPULSIVE DISORDER (OCD)” (Les Laboratoires Servier, priority 2010, published 2012).
“Also recorded” adds a separate entry of the source.

Columns and labels:
[1] = tested on: Male mice of the NMRI strain; assay: Spontaneous marble burying in mice (model of Obsessive-Compulsive Disorder); type: in vivo; conditions: for number of marbles buried: injected 30 minutes before test, 30 minutes' exploration, 24 marbles, carrier 20.2±0.6
Method: Pre-clinical studies were carried out using a model of Obsessive-Compulsive Disorder (OCD), confirming the potential of agomelatine for treatment of this pathology. […] The study was carried out as follows. Male mice of the NMRI strain (Iffa-Credo, L'Arbresle, France), weighing 20-25 g on the day of the experiment, were placed individually in Macrolon boxes (30×18×19 cm) containing 5 cm of sawdust and covered with a perforated plexiglass plate. Twenty-four “cat's eye” glass marbles were evenly distributed on the sawdust at the periphery of the box. At the end of 30 minutes' free exploration, the animals were removed from the box and the number of buried marbles was counted. Agomelatine or the carrier (control) was injected 30 minutes before the start of the test.

[2] = tested on: out-patients having a primary diagnosis of Obsessive-Compulsive Disorder; assay: Double-blind placebo-controlled clinical study in out-patients with Obsessive-Compulsive Disorder; type: in vivo, human; conditions: 25 mg, 16 weeks of treatment
Method: A clinical study comparing agomelatine with placebo was carried out in 80 out-patients more than 18 and less than 65 years in age, having a primary diagnosis of Obsessive-Compulsive Disorder according to the criteria of DSM-IV-TR. The patients must have, on entry into the study, a score of 20 or more on the Y-BOCS scale (Yale Brown Obsessive Compulsive Scale) and have been previously treated for their Obsessive-Compulsive Disorder with a serotonin reuptake inhibitor (SRI). The patients must have a depression severity score of less than 24 on the MADRS depression scale.
The study is a double-blind placebo-controlled study for a duration of treatment of 16 weeks. The patients are randomised either into the placebo group or into the 25 mg agomelatine group with the possibility of increasing the dose of agomelatine to 50 mg in the event of failure to respond after 8 weeks of treatment (criterion for failure to respond: less than 20% reduction in the total Y-BOCS score).
The main criterion for the assessment of efficacy is the reduction in the total score on the Y-BOCS scale. […] The presence of depressive symptoms and their course over time are analysed by the MADRS depression scale at the start of treatment and after 16 weeks of treatment. […]

[3] = tested on: patients; assay: Tolerability observed in clinical trials on close to 3900 patients; type: in vivo, human
Text: Amongst those effects, the discontinuation syndrome observed on stopping treatment with the customary psychotropic agents is absent in the case of agomelatine, which makes it a treatment of choice in this indication.

acceptability profile (in words) ([2]; possibly increased to 50 mg): good acceptability profile
SMILES: COc1ccc2cccc(CCNC(C)=O)c2c1 [Agomelatine, N-[2-(7-methoxy-1-naphthyl)ethyl]acetamide]
number of marbles buried ([1]; 10 mg/kg intraperitoneal, n=6): 19.2±1.3
number of marbles buried ([1]; 40 mg/kg intraperitoneal, n=6, P<0.05 vs carrier): 15.3±3.0
number of marbles buried ([1]; 80 mg/kg intraperitoneal, n=5, P<0.05 vs carrier): 4.6±1.9
effect on spontaneous marble burying (in words) ([1]; intraperitoneal, doses of 10, 40 and 80 mg/kg): greatly reduced spontaneous marble burying in mice in dose-dependent manner; also recorded: statistically significant activity
efficacy in the treatment of Obsessive-Compulsive Disorder (in words) ([2]; possibly increased to 50 mg after 8 weeks, versus placebo, 80 out-patients): confirm the efficacy
tolerability (in words) ([3]; clinical trials on close to 3900 patients): excellent tolerability
discontinuation syndrome on stopping treatment ([3]; compared with the customary psychotropic agents): absent
